What was measured:
[1] = test system: CT26 murine syngeneic tumors; assay: CT26 syngeneic tumor model, MEDI9447 monotherapy; type: in vivo, Balb/C mice
Protocol: CT26 cells, which are derived from a murine colon cancer, were established by subcutaneous (SC) injection of 5×10^5 cells suspended in 0.1 mL of PBS into the right flanks of 4-to-6-week-old female mice. The mice were treated with MEDI9447 or with a control antibody.
10 mice per group were used in this study. Animals were randomly assigned into groups. Animals in Group 1 were untreated and Group 2 was administered an isotype control. MEDI9447 was administered to Group 3. Test articles were administered intraperitoneally twice weekly starting on Day 3. On Day 16, 5 animals from each group were necropsied and tumors were isolated.
Tumors were measured on Days 1, 7, 9, 12, 14, and 16 by caliper, and the volumes of tumors were calculated as follows: […] (1) The anticancer effects of MEDI9447 were expressed as percent tumor growth inhibition, which was calculated as follows: (Average tumor volume for MEDI9447/Average tumor volume for R347-TM)×100 (2)
Tumors were isolated for flow cytometry. Tumors were dissected from CT26 tumor-bearing mice on study Day 16. Tumors were cut into small pieces and were digested with collagenase. […] Dissociated cells were pelleted at 1000 rpm for 5 minutes at 4° C. and were re-suspended in fluorescence-activated cell sorting (FACS) buffer. Cells were counted on Vi-Cell using the default setting. […]

human CD73 ECD = biological target: T1, human CD73 ECD (Homo sapiens, UniProt P21589); assay: Surface plasmon resonance (ProteOn), human CD73; type: binding; conditions: SPR
T1 construct: made in house; host or cells: mammalian cells
T1 sequence (P21589 27-549 limits assumed): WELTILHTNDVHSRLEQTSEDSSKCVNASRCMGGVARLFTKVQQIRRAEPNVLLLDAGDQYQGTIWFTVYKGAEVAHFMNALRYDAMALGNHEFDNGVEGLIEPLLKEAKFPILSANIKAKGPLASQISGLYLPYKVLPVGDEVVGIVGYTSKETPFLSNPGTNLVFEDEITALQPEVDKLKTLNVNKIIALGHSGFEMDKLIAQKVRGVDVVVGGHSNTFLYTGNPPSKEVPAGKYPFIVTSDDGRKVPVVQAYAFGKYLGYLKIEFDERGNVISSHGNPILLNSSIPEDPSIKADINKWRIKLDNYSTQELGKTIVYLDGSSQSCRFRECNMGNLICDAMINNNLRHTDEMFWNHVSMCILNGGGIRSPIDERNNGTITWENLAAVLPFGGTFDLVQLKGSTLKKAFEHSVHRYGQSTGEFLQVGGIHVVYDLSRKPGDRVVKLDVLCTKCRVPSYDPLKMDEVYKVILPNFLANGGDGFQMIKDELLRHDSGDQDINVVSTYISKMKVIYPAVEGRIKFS
Protocol: A ProteOn XPR36 instrument was used to characterize binding of MEDI9447 to human, murine, and cynomolgus CD73 ECD. MEDI9447 was affinity-captured using an anti-human Fc antibody. CD73 ECD was in the mobile phase. The association and dissociation of CD73 to MEDI9447 could be accurately described with the Langmuir 1:1 model.
The affinity of enhanced anti-CD73 antibodies (in IgG1-TM format) to human, murine, and cynomolgus CD73 was determined by flow cytometry and surface plasmon resonsance (SPR) (Table 13). The enhanced antibodies had pM affinity to cellular and recombinant CD73 from the three species.

Substance: MEDI9447: IgG1 with CD730010-derived VL of SEQ ID NO: 68 and VH of SEQ ID NO: 82
- tumor growth ([1]; CT26, Balb/C mice, 10 mg/kg IP 2X weekly): inhibited tumor growth
- proportion of tumor-infiltrating MDSCs ([1]; CT26 tumors harvested study Day 16, flow cytometry): reduced
- kd (human CD73 ECD; Human CD73 ECD): 1.06e-05 s⁻¹
- ka (human CD73 ECD; antibody captured, Human CD73 ECD in mobile phase): 2.57e+06 M⁻¹ s⁻¹
